Test results reported in patent US10105367B2, “Therapeutic thiophene-, furan-, and pyridine-fused azolopyrimidin-5-(6h)-ones” (Dart Neuroscience (Cayman) Ltd., priority 2012, dated 2018).
Several values for one entry are separate records, joined by “and”; a condition that tells them apart may be missing. Equal values may be shown once.

Molecular target: human PDE1B (Homo sapiens (Human), UniProt Q01064)
Assay: PDE1B inhibitory assay (IMAP TR-FRET)
Conditions: 200 nM FAM-cAMP, Calmodulin, CaCl2; for IC50: PDE1B pIC50, negative log of half-maximal molar inhibitory concentration; for PDE1B pIC50: negative log of half-maximal molar inhibitory concentration

## C[C@@H]1CN(Cc2cnc3c(c2)c2ncnn2c(=O)n3Cc2ccc(F)cc2)C[C@H](C)O1 [Example 275]
  IC50: 100 to 1000 nM

## Cc1ccc(Cn2c(=O)n3ncnc3c3c4c(sc32)COCC4)cc1 [Example 88]
  IC50: 100 to 1000 nM

## O=c1n(Cc2ccc(Cl)cc2F)c2sc3c(c2c2ncnn12)CCN(Cc1ccccn1)C3 [Example 130]
  PDE1B pIC50: >7

## COc1ccc(Cn2c(=O)n3ncnc3c3cc(CN4CCN5C(=O)OCC5C4)sc32)cc1 (stereo not shown) [Example 40]
  PDE1B pIC50: >7

## COc1ccc(Cn2c(=O)n3ncnc3c3cc(-c4cccnc4OC)cnc32)cc1 [Example 191]
  PDE1B pIC50: >7

## COc1ccc(Cn2c(=O)n3ncnc3c3c(C)c(Br)sc32)cc1 [Example 76, 8-Bromo-6-(4-methoxybenzyl)-9-methylthieno[3,2-e][1,2,4]triazolo[1,5-c]pyrimidin-5(6H)-one]
  IC50: 100 to 1000 nM

## CC(C)CCc1cc2c(s1)n(Cc1ccccc1Cl)c(=O)n1ncnc21 [Example 19]
  IC50: 1000 to 10000 nM

## COc1ccc(Cn2c(=O)n3ncnc3c3cc(CO)cnc32)cc1 [Example 217, 9-(Hydroxymethyl)-6-(4-methoxybenzyl)pyrido[3,2-e][1,2,4]triazolo[1,5-c]pyrimidin-5(6H)-one]
  IC50: 100 to 1000 nM

## COc1ccc(Cn2c(=O)n3ncnc3c3cc(C(O)CN4C[C@@H](C)O[C@@H](C)C4)cnc32)cc1 (stereo partly shown) [Example 268]
  PDE1B pIC50: >7

## COc1ccc(Cn2c(=O)n3ncnc3c3cc(CN4CCSCC4)cnc32)cc1 [Example 207]
  IC50: 100 to 1000 nM

## COc1ccc(Cn2c(=O)n3ncnc3c3ccc(CN(C)C4CC4)nc32)cc1 [Example 260]
  IC50: 100 to 1000 nM

## COc1ccc(Cn2c(=O)n3ncnc3c3c4c(sc32)CN(Cc2ccncc2)CC4)cc1 [Example 121]
  PDE1B pIC50: >7

## COc1ccc(Cn2c(=O)n3ncnc3c3cc(CN4CCOCC4C)cnc32)cc1 (stereo not shown) [Example 230]
  IC50: 100 to 1000 nM

## COc1ccc(Cn2c(=O)n3ncnc3c3c4c(sc32)CN(c2ccccn2)CC4)cc1 [Example 179, 6-(4-Methoxybenzyl)-9-(pyridin-2-yl)-8,9,10,11-tetrahydropyrido[4′,3′:4,5]thieno[3,2-e][1,2,4]triazolo[1,5-c]pyrimidin-5(6H)-one]
  PDE1B pIC50: >7

## COc1ccc(Cn2c(=O)n3nccc3c3cc(CN4CCOCC4)sc32)cc1 [Example 183, 4-(4-Methoxybenzyl)-2-(morpholinomethyl)pyrazolo[1,5-c]thieno[3,2-e]pyrimidin-5(4H)-one]
  IC50: 100 to 1000 nM

## Cc1cc2c(s1)n(Cc1ccccc1)c(=O)n1ncnc21 [Example 12]
  IC50: 1000 to 10000 nM

## COc1ccc(Cn2c(=O)n3ncnc3c3cc(N4CCN(S(C)(=O)=O)CC4)cnc32)cc1 [Example 203]
  IC50: 100 to 1000 nM

## COc1ccc(Cn2c(=O)n3ncnc3c3c(C)c(CNCc4cccnc4)sc32)cc1 [Example 52]
  PDE1B pIC50: >7

## COc1ccc(Cn2c(=O)n3ncnc3c3c4c(sc32)N(C(=O)C2CC2)CCC4)cc1 [Example 174]
  PDE1B pIC50: >7

## Cc1cc2c(s1)n(Cc1ccccc1Cl)c(=O)n1ncnc21 [Example 13]
  IC50: 1000 to 10000 nM

## Cc1csc2c1c1ncnn1c(=O)n2Cc1ccc(Cl)cc1 [Example 3]
  IC50: 100 to 1000 nM

## C[C@@H]1CN(Cc2cnc3c(c2)c2ncnn2c(=O)n3Cc2ccc(F)c(Br)c2)C[C@H](C)O1 [Example 278]
  IC50: 100 to 1000 nM

## COc1ccc(Cn2c(=O)n3ncnc3c3cc(CN4C[C@@H](C)O[C@@H](C)C4)cnc32)cc1F [Example 276]
  IC50: 100 to 1000 nM

## COc1ccc(Cn2c(=O)n3ncnc3c3c4c(sc32)CN(CC2CCNCC2)CC4)cc1 [Example 182]
  IC50: 100 to 1000 nM

## COc1ccc(Cn2c(=O)n3ncnc3c3cc(CN4C[C@@H](C)O[C@@H](C)C4)cnc32)c(Br)c1 [Example 286]
  IC50: 1000 to 10000 nM

## COc1ccc(Cn2c(=O)n3ncnc3c3c4c(sc32)CN(C(=O)C2CCOC2)CC4)c(F)c1 (stereo not shown) [Example 167]
  PDE1B pIC50: >7

## O=C(C1CC1)N1CCc2c(sc3c2c2ncnn2c(=O)n3Cc2ccc(Cl)cc2F)C1 [Example 164]
  PDE1B pIC50: >7

## COc1ccc(Cn2c(=O)n3ncnc3c3cc(CN4C[C@@H](C)N[C@@H](C)C4)cnc32)cc1 [Example 250]
  IC50: 1000 to 10000 nM

## Cc1oc2c(c1C)c1ncnn1c(=O)n2Cc1ccc(Cl)cc1 [Example 79, 6-(4-Chlorobenzyl)-8,9-dimethylfuro[3,2-e][1,2,4]triazolo[1,5-c]pyrimidin-5(6H)-one]
  IC50: 100 to 1000 nM

## COc1ccc(Cn2c(=O)n3ncnc3c3cc(CN4CCCN(C)CC4)cnc32)cc1 [Example 232]
  IC50: 1000 to 10000 nM

## COc1ccc(Cn2c(=O)n3ncnc3c3ccc(CN4Cc5ccccc5C4)nc32)cc1 [Example 264]
  IC50: 100 to 1000 nM

## COc1ccc(Cn2c(=O)n3ncnc3c3ncc(CN4C[C@@H](C)O[C@@H](C)C4)cc32)cc1 [Example 244]
  IC50: 1000 to 10000 nM

## COc1ccc(Cn2c(=O)n3ncnc3c3c(C)c(CN4Cc5ccccc5C4)sc32)cc1 [Example 56]
  PDE1B pIC50: >7

## COc1ccc(Cn2c(=O)n3ncnc3c3c4c(sc32)N(CC2CCOC2)CCC4)cc1 (stereo not shown) [Example 150]
  PDE1B pIC50: >7

## COc1ccc(Cn2c(=O)n3ncnc3c3c4c(sc32)CN(C(=O)C2CCOC2)CC4(F)F)cc1 (stereo not shown) [Example 166]
  PDE1B pIC50: >7

## COc1ccc(Cn2c(=O)n3ncnc3c3c4c(sc32)CN(Cc2nnc(C)s2)CC4)cc1 [Example 108]
  PDE1B pIC50: >7

## COc1ccc(Cn2c(=O)n3ncnc3c3c4c(sc32)CN(CCCSC)CC4)cc1 [Example 112]
  PDE1B pIC50: >7

## O=c1n(Cc2ccc(-c3ccccc3)cc2)c2sccc2c2ncnn12 [Example 4]
  PDE1B pIC50: <5

## COc1ccc(Cn2c(=O)n3ncnc3c3c(C)c(CN4CCOCC4C)sc32)cc1 (stereo not shown) [Example 71]
  PDE1B pIC50: >7

## CSc1ccc(Cn2c(=O)n3ncnc3c3cc(CN4C[C@@H](C)O[C@@H](C)C4)cnc32)cc1 [Example 303]
  IC50: 100 to 1000 nM

## CCC1CN(Cc2sc3c(c2C)c2ncnn2c(=O)n3Cc2ccc(OC)cc2)CCO1 (stereo not shown) [Example 68]
  PDE1B pIC50: >7

## O=c1n(Cc2ccc(F)cc2)c2sc3c(c2c2ncnn12)CCOC3 [Example 92]
  IC50: 1000 to 10000 nM

## COc1ccc(Cn2c(=O)n3ncnc3c3cc(C(C)=O)cnc32)cc1 [Example 265, 9-Acetyl-6-(4-methoxybenzyl)pyrido[3,2-e][1,2,4]triazolo[1,5-c]pyrimidin-5(6H)-one]
  IC50: 100 to 1000 nM

## C[C@@H]1CN(Cc2cnc3c(c2)c2ncnn2c(=O)n3Cc2ccc(S(C)(=O)=O)cc2)C[C@H](C)O1 [Example 282]
  PDE1B pIC50: <5

## CCN1CCN(Cc2cc3c(s2)n(Cc2ccc(OC)cc2)c(=O)n2ncnc32)CC1=O [Example 34]
  PDE1B pIC50: >7

## COc1ccc(Cn2c(=O)n3ncnc3c3ccc(CN4CCN(S(C)(=O)=O)CC4)nc32)cc1 [Example 261]
  IC50: 100 to 1000 nM

## COc1ccc(Cn2c(=O)n3ncnc3c3c4c(sc32)CN(C(=O)C2CCNC2)CC4)cc1 (stereo not shown) [Example 181]
  IC50: 100 to 1000 nM

## COc1ccc(Cn2c(=O)n3ncnc3c3cc(CN4CCC5(CC4)COC5)sc32)cc1 [Example 39]
  PDE1B pIC50: >7

## COc1ccc(Cn2c(=O)n3ncnc3c3c(C)c(CN4CCN(S(C)(=O)=O)CC4)sc32)cc1 [Example 63]
  PDE1B pIC50: >7

## COc1ccc(Cn2c(=O)n3ncnc3c3c4c(sc32)CN(C(=O)C2CC2)CC4)cc1 [Example 159]
  PDE1B pIC50: >7

## COc1ccc(Cn2c(=O)n3ncnc3c3cc(CN4CCOCC4)cnc32)cc1 [Example 205]
  IC50: 100 to 1000 nM

## COc1ccc(Cn2c(=O)n3ncnc3c3cc(CN4CCN(C(=O)C5CCOC5)CC4)cnc32)cc1 (stereo not shown) [Example 255]
  IC50: 100 to 1000 nM

## COc1ccc(Cn2c(=O)n3ncnc3c3cc(CN4C[C@@H](C)O[C@@H](C)C4)sc32)cc1 [Example 33]
  PDE1B pIC50: >7

## COc1ccc(Cn2c(=O)n3ncnc3c3c(C)c(CN4CCOCC4)sc32)cc1 [Example 44]
  PDE1B pIC50: >7

## O=c1n(Cc2ccc(Cl)cc2)c2sc3c(c2c2ncnn12)CCN(CC(F)(F)F)C3 [Example 107]
  IC50: 100 to 1000 nM

## COc1ccc(Cn2c(=O)n3ncnc3c3cc(N(C)C4CCOCC4)cnc32)cc1 [Example 200]
  IC50: 100 to 1000 nM

## COc1ccc(Cn2c(=O)n3ncnc3c3cc(CN4C[C@@H](C)O[C@@H](C)C4)cnc32)cc1 [Example 220]
  PDE1B pIC50: >7

## Cc1csc2c1c1ncnn1c(=O)n2Cc1ccc(-c2ccccc2)cc1 [Example 7]
  PDE1B pIC50: <5

## COCCN1CCN(c2cnc3c(c2)c2ncnn2c(=O)n3Cc2ccc(OC)cc2)CC1 [Example 197]
  IC50: 100 to 1000 nM

## C[C@@H]1CN(Cc2cnc3c(c2)c2ncnn2c(=O)n3Cc2ccc(OC(F)(F)F)cc2)C[C@H](C)O1 [Example 273, 9-(((2S,6R)-2,6-Dimethylmorpholino)methyl)-6-(4-(trifluoromethoxy)benzyl)pyrido[3,2-e][1,2,4]triazolo[1,5-c]pyrimidin-5(6H)-one]
  IC50: 100 to 1000 nM and 1000 to 10000 nM

## COc1ccc(Cn2c(=O)n3ncnc3c3cc(-c4cc(C(F)(F)F)nn4C)sc32)cc1 [Example 41, 6-(4-Methoxybenzyl)-8-(1-methyl-3-(trifluoromethyl)-1H-pyrazol-5-yl)thieno[3,2-e][1,2,4]triazolo[1,5-c]pyrimidin-5(6H)-one]
  PDE1B pIC50: >7

## COc1ccc(Cn2c(=O)n3ncnc3c3c(C)c(CN4CCNC(=O)C4)sc32)cc1 [Example 53]
  PDE1B pIC50: >7

## COc1ccc(Cn2c(=O)n3ncnc3c3c4c(sc32)CN(CC2COCCO2)CC4)cc1 (stereo not shown) [Example 125]
  PDE1B pIC50: >7

## COc1ccc(Cn2c(=O)n3ncnc3c3c4c(sc32)CN(CC2CCCCO2)CC4)cc1 (stereo not shown) [Example 117]
  PDE1B pIC50: >7

## COc1ccc(Cn2c(=O)n3ncnc3c3cc(CCNC(C)c4ccccc4)cnc32)cc1 (stereo not shown) [Example 213]
  IC50: 100 to 1000 nM

## COc1ccc(Cn2c(=O)n3ncnc3c3c4c(sc32)CN(Cc2scnc2C)CC4)cc1 [Example 123]
  PDE1B pIC50: >7

## O=c1n(Cc2ccc(Cl)c(F)c2)c2sc3c(c2c2ncnn12)CCOC3 [Example 93]
  IC50: 100 to 1000 nM

## CC1(C)Cc2c(sc3c2c2ncnn2c(=O)n3Cc2ccc(Cl)cc2)CO1 [Example 83]
  IC50: 100 to 1000 nM

## Cc1csc2c1c1ncnn1c(=O)n2Cc1cccc(Cl)c1 [Example 11]
  IC50: 100 to 1000 nM

## COc1ccc(Cn2c(=O)n3ncnc3c3cc(CN4C[C@H](C)OC[C@@H]4C)cnc32)cc1 [Example 247]
  PDE1B pIC50: >7
